Assay results as given in patent US20220125959A1, “PROSTATE-SPECIFIC MEMBRANE ANTIGEN (PSMA) INHIBITORS AS DIAGNOSTIC AND RADIONUCLIDE THERAPEUTIC AGENTS” (FIVE ELEVEN PHARMA INC., priority 2019, published 2022).
Like-named read-outs stand apart in the source and are kept apart here.

Key:
[1] = target: PSMA (Homo sapiens, UniProt Q04609); experiment: PSMA competitive binding, PC-3 PIP cells with [125I]MIP-1095; design: expressed in transfected cells; host or cells: PC-3 PIP cells
Protocol: In vitro binding assays were carried out to determine the PSMA binding affinity of various compounds. By incubating PSMA positive cells either with: 1). LNCaP with 0.2 nM [^68Ga]PSMA-11 or [^125I]MIP-1095, as the ligand, in the presence of 10 different concentrations of competing ligands; non-specific binding was defined with 20 μM 2-PMPA (2-(phosphonomethyl)pentanedioic acid); or 2). PC-3 PIP cells with [^125I]MIP-1095 (0.18 nM diluted in PBS) in presence of different concentration of test compounds ([…] diluted in PBS containing 0.1% bovine serum albumin). Nonspecific binding (NSB) was defined with 2 μM the known PSMA inhibitor, PSMA-617. After incubation at 37° C. for 1 h, the bound and free fractions were separated by vacuum filtration through GF/B filters using a Brandel M-24R cell harvester. The filters were washed twice with cold Tris-HCl buffer (50 mM, pH=7.4), and the radioactivity on the filters was counted in a gamma counter (Wizard^2, Perkin-Elmer) with 50% efficiency. The nonspecific bound was less than 10% of the total bound. Data were analyzed using GraphPad Prism 6.0 with a nonlinear regression algorithm to obtain the half maximal inhibitory concentration (IC50).
The binding affinities to PSMA of the test compounds were measured by a competitive binding assay using either LNCap or PC-3 PIP cells suspension and the known radiotracers known to have high affinity and specificity to PSMA, [^68Ga]PSMA-11 or [^125I]MIP-1095. The IC50 values of four iodinated compounds, three DOTA, DOTAG and DOTA(GA)2 related compounds and two known PSMA inhibitors are shown in Table 1. Complexes of compound 4 and natural Ga and natural Lu were also tested. […] After labeling with radioisotope they are expected to bind to the tumor tissues over expressing PSMA binding sites.

[2] = test system: PIP tumor and PC3 tumor; experiment: Biodistribution of 125I labeled compounds 17, 18, 26 and 27 in tumor bearing nude mice; format: in vivo; conditions: for Biodistribution: Bladder* / Biodistribution: Stomach* / Biodistribution: large intestine* / Biodistribution: small intestine*: organ with content; for PIP/blood / PIP/muscle: ratio
Protocol: Radioiodination and Purification: 100 μg of either precursor 13, 14, 22 or 23 were dissolved in 100 μL EtOH; 22 μL Na^125I (1033-1118 μCi in 0.1 N NaOH), 100 μL 1N HCl and 100 μL 3% H2O2 were added. After 15 minutes at room temperature, the reaction was stopped by adding 150 μL sat. NaHSO3. The reaction mixture was slowly added to 1.5 mL sat. NaHCO3. Vial was rinsed with 1000 μL EtOH and mixture was diluted further to 10 mL mL water. The active sample was transferred onto an activated C4 mini column. The mixture was pushed through, washed twice with 3 mL water and the product was eluted with 1 mL ACN. Added 100 μL DMSO. The mixture was concentrated to ˜100 μL and purified by HPLC (Agilent Eclipse XCD C18 150×4.6 mm, 5 μm; 4 mL/min, gradient (ACN and water; 0-1 min (20/80), 1-16 min (20/80-100/0), 16-16.5 min (100/0-20/80), 16.5-20 min 20/80) (collected every minute). The sample was blown to dryness under argon, re-dissolved in 500 μL CH2Cl2 and 1 mL TFA was added at room temperature. After 1 hr the solution was blown to dryness and activity taken into 1 mL EtOH (10 μL saturated ascorbic acid/EtOH was added). Isolated activities for [^125I]17, 18, 26, and 27 were 197, 189, 600 and 197 μCi respectively. A representative picture of HPLC profiles (FIG. 3) for radiolabeled protected (intermediate), cold standard and radioactive trace of final compound is shown for [^125I]26.
For iv injection 150 μL of labeled solution was diluted with saline to 3.75 mL. Mice were injected with 2˜3 μCi of [^125I]18, 27, 26, and 18 in 0.15 mL saline. Injected radioactivity was 2 to 3 μCi.
Biodistribution study of [^125I]18, 27, 26, and 18 in tumor bearing nude mice were evaluated for their ability to localization of PSMA positive tumor (Tables 5, 6, 7 and 8). It was observed that [^125I]26 and [^125I] […] These new agents are valuable for radionuclide therapy, when labeled with beta or alpha-emitting isotopes; but these agents will also be useful as diagnostic agents when labeled with gamma-emitting isotopes.

[3] = n = 3 (a: n = 2), read-out: IC50 *(PC-3 PIP cells and [125I]MIP-1095)

Chain of PSMA (Q04609 whole entry, species assumed): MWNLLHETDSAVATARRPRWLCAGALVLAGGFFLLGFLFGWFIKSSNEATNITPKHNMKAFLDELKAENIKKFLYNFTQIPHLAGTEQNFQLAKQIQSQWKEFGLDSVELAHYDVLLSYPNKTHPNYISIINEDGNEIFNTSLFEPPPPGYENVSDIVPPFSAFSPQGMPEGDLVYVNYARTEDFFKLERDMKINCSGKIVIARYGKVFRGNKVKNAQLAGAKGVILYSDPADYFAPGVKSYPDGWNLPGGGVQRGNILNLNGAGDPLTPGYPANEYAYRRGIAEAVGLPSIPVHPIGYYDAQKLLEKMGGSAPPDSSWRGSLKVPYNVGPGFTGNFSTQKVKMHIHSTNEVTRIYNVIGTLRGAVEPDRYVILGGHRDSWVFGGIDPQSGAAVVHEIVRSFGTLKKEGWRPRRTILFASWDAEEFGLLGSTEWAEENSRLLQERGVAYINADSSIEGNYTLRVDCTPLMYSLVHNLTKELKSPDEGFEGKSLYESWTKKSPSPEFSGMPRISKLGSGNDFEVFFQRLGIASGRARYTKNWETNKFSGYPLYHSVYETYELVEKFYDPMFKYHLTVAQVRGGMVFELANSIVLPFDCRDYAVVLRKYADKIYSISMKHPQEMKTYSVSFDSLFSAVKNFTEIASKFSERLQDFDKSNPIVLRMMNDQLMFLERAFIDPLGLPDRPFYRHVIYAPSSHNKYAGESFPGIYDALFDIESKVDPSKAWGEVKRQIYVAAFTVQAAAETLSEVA

O=C(O)CC[C@H](NC(=O)N[C@@H](CCCCNC(=O)[C@H](Cc1ccccc1)NC(=O)[C@H](CCC(=O)O)NC(=O)c1ccc(I)cc1)C(=O)O)C(=O)O [Compound 17, (((S)-1-Carboxy-5-((S)-2-((S)-4-carboxy-2-(4-iodobenzamido)butanamido)-3-phenylpropanamido)pentyl)carbamoyl)-L-glutamic acid]
IC50 [1, 3]: 2.63 ± 0.13 nM

O=C(O)CC[C@H](NC(=O)N[C@@H](CCCCNC(=O)[C@H](Cc1ccccc1)NC(=O)[C@H](CCC(=O)O)NC(=O)[C@H](CCC(=O)O)NC(=O)c1ccc(I)cc1)C(=O)O)C(=O)O [Compound 18, (((S)-1-Carboxy-5-((S)-2-((S)-4-carboxy-2-((S)-4-carboxy-2-(4-iodobenzamido)butanamido)butanamido)-3-phenylpropanamido)pentyl)carbamoyl)-L-glutamic acid]
IC50 [1, 3]: 1.99 ± 0.06 nM

O=C(O)CC[C@H](NC(=O)N[C@@H](CCCCNC(=O)[C@H](Cc1ccccc1)NC(=O)COc1ccc(C[C@H](NC(=O)[C@H](CCC(=O)O)NC(=O)c2ccc(I)cc2)C(=O)O)cc1)C(=O)O)C(=O)O [Compound 26, (((S)-1-Carboxy-5-((S)-2-(2-(4-((S)-2-carboxy-2-((S)-4-carboxy-2-(4-iodobenzamido)butanamido)ethyl)phenoxy)acetamido)-3-phenylpropanamido)pentyl)carbamoyl)-L-glutamic acid]
IC50 [1, 3]: 4.74 ± 0.37 nM

O=C(O)CCC(C(=O)O)N1CCN(CC(=O)O)CCN(C(CCC(=O)N[C@@H](CCC(=O)O)C(=O)N[C@@H](CCC(=O)O)C(=O)N[C@@H](Cc2ccc(OCC(=O)N[C@@H](Cc3ccccc3)C(=O)NCCCC[C@H](NC(=O)N[C@@H](CCC(=O)O)C(=O)O)C(=O)O)cc2)C(=O)O)C(=O)O)CCN(CC(=O)O)CC1 (stereo partly drawn) [Compound 29, (((1S)-5-((2S)-2-(2-(4-((2S)-2-((2S)-2-((2S)-2-(4-(4,10-Bis(carboxymethyl)-7-(1,3-dicarboxypropyl)-1,4,7,10-tetraazacyclododecan-1-yl)-4-carboxybutanamido)-4-carboxybutanamido)-4-carboxybutanamido)-2-carboxyethyl)phenoxy)acetamido)-3-phenylpropanamido)-1-carboxypentyl)carbamoyl)-L-glutamic acid]
IC50 [1, 3]: 22.6 ± 1.59 nM

O=C(O)CC[C@H](NC(=O)N[C@@H](CCCCNC(=O)[C@H](Cc1ccccc1)NC(=O)COc1ccc(C(=O)NCCCC[C@H](NC(=O)CNC(=O)CCC(C(=O)O)N2CCN(CC(=O)O)CCN(CC(=O)O)CCN(CC(=O)O)CC2)C(=O)O)cc1)C(=O)O)C(=O)O (stereo partly drawn) [Compound 38, (((1S)-1-Carboxy-5-((2S)-2-(2-(4-(((5S)-5-carboxy-5-(2-(4-carboxy-4-(4,7,10-tris(carboxymethyl)-1,4,7,10-tetraazacyclododecan-1-yl)butanamido)acetamido)pentyl)carbamoyl)phenoxy)acetamido)-3-phenylpropanamido)pentyl)carbamoyl)-L-glutamic acid]
IC50 [1, 3]: 28.1 ± 0.85 nM

O=C(O)CCc1ccc(O)c(CN(CCN(CC(=O)O)Cc2cc(CCC(=O)NCCCCCC(=O)NCCCC[C@H](NC(=O)N[C@@H](CCC(=O)O)C(=O)O)C(=O)O)ccc2O)CC(=O)O)c1 [PSMA-11, Glu-NH—CO—NH-Lys-(Ahx)-(HBED-CC), reference compound]
IC50 [1, 3]: 47.8 ± 3.16 nM

O=C(O)CC[C@H](NC(=O)N[C@@H](CCCCNC(=O)[C@H](Cc1ccccc1)NC(=O)COc1ccc(C[C@H](NC(=O)[C@H](CCC(=O)O)NC(=O)[C@H](CCC(=O)O)NC(=O)c2ccc([125I])cc2)C(=O)O)cc1)C(=O)O)C(=O)O [[^125I]27]
Biodistribution: Blood ([2]; 1 h): 0.47 ± 0.07 % ID/g | Biodistribution: Bone ([2]; 1 h): 0.94 ± 0.21 % ID/g | Biodistribution: Heart ([2]; 1 h): 2.60 ± 0.10 % ID/g | Biodistribution: Kidney ([2]; 1 h): 127.77 ± 8.24 % ID/g | Biodistribution: Liver ([2]; 1 h): 1.72 ± 0.11 % ID/g | Biodistribution: Lung ([2]; 1 h): 3.53 ± 1.35 % ID/g | Biodistribution: Muscle ([2]; 1 h): 1.05 ± 0.07 % ID/g | Biodistribution: PC3 tumor ([2]; 1 h): 1.99 ± 0.17 % ID/g | Biodistribution: PIP tumor ([2]; 1 h): 17.19 ± 3.74 % ID/g | Biodistribution: Pancreas ([2]; 1 h): 1.32 ± 0.46 % ID/g | Biodistribution: Skin ([2]; 1 h): 2.68 ± 0.47 % ID/g | Biodistribution: Spleen ([2]; 1 h): 12.25 ± 3.36 % ID/g | Biodistribution: gland ([2]; 1 h): 3.59 ± 1.03 % ID/g | Biodistribution: thyroid ([2]; 1 h): 39.72 ± 12.95 % ID/g | Biodistribution: Bladder* ([2]; 1 h): 53.39 ± 19.82 % ID/g | Biodistribution: Stomach* ([2]; 1 h): 0.55 ± 0.21 % ID/g | Biodistribution: large intestine* ([2]; 1 h): 1.13 ± 0.52 % ID/g | Biodistribution: small intestine* ([2]; 1 h): 1.52 ± 0.45 % ID/g | PIP/blood ([2]; 1 h): 36.90 ± 8.14 | PIP/muscle ([2]; 1 h): 16.57 ± 4.28 | Biodistribution: Blood ([2]; 4 h): 0.32 ± 0.12 % ID/g | Biodistribution: Bone ([2]; 4 h): 0.56 ± 0.05 % ID/g | Biodistribution: Heart ([2]; 4 h): 1.36 ± 0.33 % ID/g | Biodistribution: Kidney ([2]; 4 h): 138.08 ± 31.03 % ID/g | Biodistribution: Liver ([2]; 4 h): 1.28 ± 0.63 % ID/g | Biodistribution: Lung ([2]; 4 h): 1.86 ± 0.24 % ID/g | Biodistribution: Muscle ([2]; 4 h): 0.69 ± 0.21 % ID/g | Biodistribution: PC3 tumor ([2]; 4 h): 1.67 ± 0.44 % ID/g | Biodistribution: PIP tumor ([2]; 4 h): 17.36 ± 2.57 % ID/g | Biodistribution: Pancreas ([2]; 4 h): 1.07 ± 0.31 % ID/g | Biodistribution: Skin ([2]; 4 h): 2.03 ± 0.39 % ID/g | Biodistribution: Spleen ([2]; 4 h): 13.16 ± 4.01 % ID/g | Biodistribution: gland ([2]; 4 h): 3.57 ± 0.54 % ID/g | Biodistribution: thyroid ([2]; 4 h): 60.34 ± 22.28 % ID/g | Biodistribution: Bladder* ([2]; 4 h): 38.17 ± 21.99 % ID/g | Biodistribution: Stomach* ([2]; 4 h): 0.96 ± 0.55 % ID/g | Biodistribution: large intestine* ([2]; 4 h): 1.35 ± 0.48 % ID/g | Biodistribution: small intestine* ([2]; 4 h): 0.83 ± 0.34 % ID/g | PIP/blood ([2]; 4 h): 58.93 ± 20.54 | PIP/muscle ([2]; 4 h): 27.34 ± 10.28 | Liver uptakes ([2]; mouse, in vivo): low | Uptakes in PIP tumors, kidneys and spleen compared to [125I]17 and [125I]18 ([2]; mouse, in vivo): higher uptakes

O=C([O-])CN1CCN(C(CCC(=O)NCC(=O)N[C@@H](Cc2ccc(OCC(=O)N[C@@H](Cc3ccccc3)C(=O)NCCCC[C@H](NC(=O)N[C@@H](CCC(=O)O)C(=O)O)C(=O)O)cc2)C(=O)O)C(=O)[O-])CCN(CC(=O)[O-])CCN(C(CCC(=O)O)C(=O)O)CC1.[Ga+3] (stereo partly drawn) [[^natGa]4, (4S,11S,15S)-4-benzyl-1-(4-((2S)-2-(2-(4-(4,10-bis(carboxymethyl)-7-(1,3-dicarboxypropyl)-1,4,7,10-tetraazacyclododecan-1-yl)-4-carboxylatebutanamido)acetamido)-2-carboxyethyl)phenoxy)-2,5,13-trioxo-3,6,12,14-tetraazaheptadecane-11,15,17-tricarboxylate gallium]
IC50 [1, 3]: 22.2 ± 2.1 nM

O=C(O)CC[C@H](NC(=O)N[C@@H](CCCCNC(=O)[C@H](Cc1ccccc1)NC(=O)COc1ccc(C[C@H](NC(=O)CNC(=O)CCC2C(=O)[O][Lu-4]345678[O]C(=O)CN9CC[N+]23CC[N+]4(CC[N+]5(CC9)C(CCC(=O)[OH+]6)C(=O)[O]7)CC(=O)[O]8)C(=O)O)cc1)C(=O)O)C(=O)O (some centres unmarked) [[^natLu]4]
IC50 [1]: 18.7 ± 0.3 nM
